Broadly, the EC50 is the midpoint of the concentration-response curve.

Consider 39 molecules from PubChem BioAssay AID743178 (NMMLSC, 2013).

SMILES strings stand for the structures. Active and inactive are the calls of the source.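 How the source made its calls: active means percent MAC1 positive of at least 15% at the highest dose, plus EC50 under 10 µM; inactive means the rest.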

Test [1] in a line: myeloid differentiation promoters in U937 leukemia cells, SAR follow-up, cell-based, MAC1 flow cytometry, set 1 (AID 743178). Conditions: U937 myeloid differentiation, MAC1 flow cytometry, 4 d; at 10 µM (top of the series). In general terms: A flow cytometer gives signals particle by particle.
Test [2] has as its system U937 myeloid differentiation, MAC1 flow cytometry, 4 d. The test is described as above.

As for `N#Cc1ccc(C(=O)NCCC(=O)N[C@@H]2CCCc3ccccc32)cc1`, the percent MAC1 positive in test [1] is 0.711% (inactive). `O=C(NC1CCc2ccccc21)C1CCCN(C(=O)c2ccc(Cl)cc2)C1` (centres undefined): the percent MAC1 positive in test [1] was 1.16% (inactive). Regarding `O=C(CCNC(=O)c1cccc(Cl)c1)N[C@@H]1CCCc2ccccc21`, the EC50 in test [2] is 7.94 µM. Consider `O=C(CNC(=O)c1ccc(Cl)cc1)N[C@@H]1CCCc2ccccc21`, for which, in test [1], the percent MAC1 positive is 1.65% (inactive). For `NCCC(=O)N[C@@H]1CCCc2ccccc21`, the percent MAC1 positive in test [1] was 1.1% (inactive). Still for that read-out and setting: with `CC(=O)NCCC(=O)N[C@@H]1CCCc2ccccc21` the figure was 0.776% (inactive); with `C[C@@H](NC(=O)CCNC(=O)c1ccc(Cl)cc1)c1ccccc1`, 1.51% (inactive). Regarding `COc1ccc(C(=O)NCCC(=O)N[C@@H]2CCCc3ccccc32)cc1`, in test [1], the percent MAC1 positive was 28.1% (inactive).

As to `O=C(CCNC(=O)c1ccc(Cl)c(Cl)c1)N[C@@H]1CCCc2ccccc21`, in test [2], the EC50 is 3.4 µM.

In the case of `O=C(O)c1ccccc1OCc1ccccc1Br`, the percent MAC1 positive in test [1] is 0% (inactive). On the same count and under the same terms, with `O=C(O)c1cccnc1Nc1ccc(Cl)cc1` the figure was 85% (inactive); with `CC(NC(=O)CCNC(=O)c1ccc(Cl)cc1)c1ccc2c(c1)OCO2` (centres undefined), 1.17% (inactive); with `O=C(CNC(=O)c1ccc(Cl)c(Cl)c1)N[C@@H]1CCCc2ccccc21`, 1.68% (inactive). Take `O=C(CCNC(=O)c1ccc(Cl)cc1)NC1CCCc2ccccc21` (centres undefined): the EC50 in test [2] was 4.57 µM. Take `O=C(Cc1ccc(Cl)cc1)NCCC(=O)N[C@@H]1CCCc2ccccc21`: the percent MAC1 positive in test [1] is 13.3% (inactive). As for `Cc1cccc(C(=O)NCCC(=O)NC2CCCc3ccccc32)c1` (centres undefined), in test [1], the percent MAC1 positive was 1.09% (inactive). On the same count and under the same terms, with `CC(NC(=O)C1CCCN(C(=O)c2ccc(Cl)cc2)C1)c1ccccc1` (centres undefined) the figure was 1.23% (inactive). With `O=C(CCNC(=O)c1ccc(Cl)cc1)N[C@@H]1CCCc2ccccc21`, the EC50 in test [2] is 2.78 µM. Regarding `O=C(CCCNC(=O)c1ccc(Cl)c(Cl)c1)N[C@@H]1CCCc2ccccc21`, the percent MAC1 positive in test [1] is 1.27% (inactive). For the molecule `O=C(CCNC(=O)c1ccc(Cl)cc1)N[C@H]1CCCc2ccccc21`, the percent MAC1 positive in test [1] is 2.12% (inactive). The same measure, in the same setting: with `O=C(CCNC(=O)c1ccccc1)N[C@@H]1CCCc2ccccc21` the figure was 1.8% (inactive); with `Cc1ccc(C)c(OCCn2cc(C(=O)O)c3ccccc32)c1`, 0% (inactive).

For the molecule `O=C(CNC(=O)c1ccc(OC(F)(F)F)cc1)N[C@@H]1CCCc2ccccc21`, in test [1], the percent MAC1 positive was 1.56% (inactive). Same read-out and setting: with `COc1ccccc1C(C)NC(=O)CCNC(=O)c1ccc(Cl)cc1` (centres undefined) the figure was 0.779% (inactive).

For the molecule `CC(C)(C)OC(=O)NCCC(=O)N[C@H]1CCCc2ccccc21`, the percent MAC1 positive in test [1] was 1.16% (inactive). On the same count and under the same terms, next, `O=C(CCNC(=O)c1ccc(Cl)cc1)NC1CCCCC1`: 1.63% (inactive); `O=C(CCCNC(=O)c1ccc(Cl)cc1)N[C@@H]1CCCc2ccccc21`: 1.04% (inactive). Consider `Cc1ccc(C(=O)NCCC(=O)N[C@@H]2CCCc3ccccc32)cc1`, for which the EC50 in test [2] was 4.21 µM. Regarding `O=C(CCNC(=O)c1ccc2c(c1)OC(F)(F)O2)N[C@@H]1CCCc2ccccc21`, the EC50 in test [2] is 4.41 µM.

Take `O=C(CCNC(=O)c1ccc(OC(F)(F)F)cc1)N[C@@H]1CCCc2ccccc21`: the EC50 in test [2] is 2.07 µM. As to `O=C(NC1CCOc2ccccc21)C1CCCN(C(=O)c2ccc(Cl)cc2)C1` (centres undefined), the percent MAC1 positive in test [1] was 0.843% (inactive). The same measure, in the same setting: next, `O=C(CCNC(=O)c1ccc(Cl)cc1)N[C@@H]1CCc2ccccc21`: 6% (inactive); `O=C(CCCNC(=O)c1ccc(C(F)(F)F)cc1)N[C@@H]1CCCc2ccccc21`: 2.46% (inactive); `O=C(CNC(=O)c1ccc(C(F)(F)F)cc1)N[C@@H]1CCCc2ccccc21`: 1.08% (inactive). On the same count and under the same terms, with `CC(C)(C)OC(=O)NCCC(=O)N[C@@H]1CCCc2ccccc21` the figure was 1.18% (inactive); with `CC(c1ccccc1)N(C)C(=O)CCNC(=O)c1ccc(Cl)cc1` (centres undefined), 0.788% (inactive). The same measure, in the same setting: next, `O=C(CCCNC(=O)c1ccc(OC(F)(F)F)cc1)N[C@@H]1CCCc2ccccc21`: 0.912% (inactive); `CC(NC(=O)CCNC(=O)c1ccc(Cl)cc1)c1ccc(F)cc1` (centres undefined): 3.42% (inactive). As for `O=C(CCNC(=O)c1ccc(C(F)(F)F)cc1)N[C@@H]1CCCc2ccccc21`, the concentration for a half-maximal effect (EC50) in test [2] is 2.26 µM.
